In PubChem BioAssay AID1636 (PCMD, 2009):

Molecular target: Procathepsin L (Homo sapiens) (UniProt P07711)
Assay: CTSL enzyme inhibitors – biochemical, probe 2, dose response (AID 1636)
Settings: purified human cathepsin L enzyme inhibition

Procathepsin L (Homo sapiens), sequence (P07711 114-288 limits assumed): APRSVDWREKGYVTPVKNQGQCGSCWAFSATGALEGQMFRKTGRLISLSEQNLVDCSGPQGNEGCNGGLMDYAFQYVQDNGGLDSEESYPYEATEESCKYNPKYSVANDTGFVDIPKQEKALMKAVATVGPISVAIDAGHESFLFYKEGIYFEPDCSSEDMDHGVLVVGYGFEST
Procathepsin L (Homo sapiens), sequence (P07711 292-333 limits assumed): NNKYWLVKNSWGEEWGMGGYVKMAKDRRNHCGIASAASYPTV

`CC(C)(C)OC(=O)N[C@@H](Cc1c[nH]c2ccccc12)C(=O)NNC(=O)OCC(=O)N1CCCc2ccccc21` was tested, and the IC50 was 7 nM.
